This is an account of results in PMC3582829 (European journal of medicinal chemistry, 2012).

Each structure is given as a SMILES string. Read-outs that look alike come from different tables or passages of the source.

Assay [1] has as its system T. cruzi amastigotes. As to the kind of experiment: T. cruzi amastigote assay in Vero cells. Format: cell-based, Trypanosoma cruzi. Conditions: intracellular T. cruzi.
The next assay concerns the target TcFPPS (Trypanosoma cruzi, UniProt Q8WS26). Type of assay: biochemical.
The subject of a further assay is T. gondii tachyzoites. Conditions: positive control, cited from earlier work.
The test system of assay [2] is T. cruzi amastigotes. Conditions: positive control; cited from earlier work.

Take `CCCCCC(C)NCC(P(=O)(O)O)P(=O)(O)O` (stereo not drawn) [Compound 18, 1-[(n-Hept-2-ylamino)ethyl] 1,1-bisphosphonic Acid]: the “activity against T. cruzi amastigotes (in words)” value in the assay with T. cruzi amastigotes [1] is reported as “almost devoid of antiparasitic activity”. For the same molecule, the “activity towards TcFPPS (in words)” value on TcFPPS is “almost devoid of antiparasitic activity”.

`CCCCCCCNCC(O)(P(=O)(O)O)P(=O)(O)O` [Compound 21, 1-[(n-Heptylamino)ethyl]-1-hydroxy-1,1-bisphosphonic Acid]: in the assay on T. cruzi amastigotes [1], the “activity against T. cruzi amastigotes (in words)” value is “almost devoid of antiparasitic activity”. The “activity towards TcFPPS (in words)” value at TcFPPS is on record as “almost devoid of antiparasitic activity”.

In the case of `CCCCCCCSCC(P(=O)(O)O)P(=O)(O)O` [Compound 36, 1-[(n-Heptylthio)ethyl]-1,1-bisphosphonic Acid], the “activity against T. cruzi amastigotes (in words)” value with T. cruzi amastigotes [1] is on record as “devoid of anti-T. cruzi activity”. For the same molecule, at TcFPPS, the “activity towards TcFPPS (in words)” value is given as “devoid of anti-T. cruzi activity”.

Regarding `O=P(O)(O)C(O)(Cc1cccnc1)P(=O)(O)O` [Risedronate, risedronate], the “ED50 T. gondii” value is 2.4 µM in the assay with T. gondii tachyzoites (listed as risedronate) and 2.4 ± 0.7 [29] μM in the assay on T. gondii tachyzoites. The “ED50 T. cruzi amastigotes” value in the assay on T. cruzi amastigotes [2] was 55.0 ± 5.0 [68] μM.
